Laboratory results from US6770748B2, “Bicyclonucleoside and oligonucleotide analogue” (priority 1997, dated 2004).

Legend:
[1] = system: complementary RNA 3′-r(CGCAAAAAACGA) (SEQ ID NO:12); experiment: Melting temperature (Tm) of annealing products of antisense oligonucleotide analogues with complementary RNA sense strand; format: binding; settings: for Tm for complementary RNA: 100 mM NaCl, 10 mM sodium phosphate buffer (pH 7.2), 4 μM antisense strand, 4 μM sense strand, UV 260 nm; for ΔTm/mod. for complementary RNA: change of Tm per modified residue versus natural strand
Procedure: (§1) The melting temperatures (Tm's) of annealing products between antisense strands, which were the various oligonucleotide analogues synthesized in Example 2, and natural DNA- or RNA-based sense strands were measured to investigate the hybridizing ability of the oligonucleotide analogues of the present invention for complementary DNA and RNA.
(§2) Each sample solution (500 μL) with end concentrations of 100 mM NaCl, 10 mM sodium phosphate buffer (pH 7.2), 4 μM antisense strand, and 4 μM sense strand, respectively, was bathed in boiling water, and slowly cooled to room temperature over the course of 10 hours. The sample solution was gradually cooled to 5° C., kept at 5° C. for a further period of 20 minutes, and then started to be measured, with a stream of nitrogen being passed through a cell chamber of a spectrophotometer (UV-2100PC, Shimadzu) for prevention of moisture condensation. The sample temperature was raised at a rate of 0.2° C./minute until 90° C., and the ultraviolet absorption at 260 nm was measured at intervals of 0.1° C. To prevent changes in the sample concentration with increases in the temperature, the cell was provided with a closure, and a drop of a mineral oil was applied onto the surface of the sample solution during measurement.

[2] = system: complementary DNA 3′-CGCAAAAAACGA-5′ (SEQ ID NO:12); experiment: Melting temperature (Tm) of annealing products of antisense oligonucleotide analogues with complementary DNA sense strand; format: binding; settings: for Tm for complementary DNA: 100 mM NaCl, 10 mM sodium phosphate buffer (pH 7.2), 4 μM antisense strand, 4 μM sense strand, UV 260 nm; for ΔTm/mod. for complementary DNA: change of Tm per modified residue versus natural strand
Procedure: as §1, §2

[3] = target: snake venom phosphodiesterase (Crotalus adamanteus, UniProt J3SEZ3)
[4] = total increase versus natural strand

snake venom phosphodiesterase, sequence (J3SEZ3 24-851 limits assumed): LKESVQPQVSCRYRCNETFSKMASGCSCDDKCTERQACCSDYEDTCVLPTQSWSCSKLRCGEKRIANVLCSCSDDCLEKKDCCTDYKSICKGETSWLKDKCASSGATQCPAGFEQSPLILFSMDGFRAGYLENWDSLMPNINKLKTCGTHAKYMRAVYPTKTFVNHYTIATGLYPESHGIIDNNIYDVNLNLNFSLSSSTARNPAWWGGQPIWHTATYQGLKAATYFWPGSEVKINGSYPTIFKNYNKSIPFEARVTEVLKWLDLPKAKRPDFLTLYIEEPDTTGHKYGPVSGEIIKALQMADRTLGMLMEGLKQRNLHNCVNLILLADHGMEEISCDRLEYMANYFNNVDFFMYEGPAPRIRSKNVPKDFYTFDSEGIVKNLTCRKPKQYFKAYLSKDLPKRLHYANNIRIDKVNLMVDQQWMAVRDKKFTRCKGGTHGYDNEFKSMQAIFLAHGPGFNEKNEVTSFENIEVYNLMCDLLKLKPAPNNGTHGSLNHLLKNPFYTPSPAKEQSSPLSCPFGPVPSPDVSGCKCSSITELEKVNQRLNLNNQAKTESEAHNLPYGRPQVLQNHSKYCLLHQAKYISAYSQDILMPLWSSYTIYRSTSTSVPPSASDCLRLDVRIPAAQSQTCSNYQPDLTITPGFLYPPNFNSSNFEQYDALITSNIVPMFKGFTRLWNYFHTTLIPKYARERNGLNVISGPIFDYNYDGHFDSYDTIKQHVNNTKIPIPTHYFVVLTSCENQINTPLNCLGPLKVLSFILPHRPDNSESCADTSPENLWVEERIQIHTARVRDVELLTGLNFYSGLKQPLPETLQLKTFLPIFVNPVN

Molecule | Tm for complementary RNA [1] [°C] | Tm for complementary DNA [2] [°C] | ΔTm/mod. for complementary RNA [1] | ΔTm/mod. for complementary DNA [2] | also measured
CC(C)(C)[Si](OC[C@@]12CO[C@@H]([C@H](n3cnc4c(NCc5ccccc5)ncnc43)O1)[C@@H]2OCc1ccccc1)(c1ccccc1)c1ccccc1 |  |  |  |  | melting point: 80 to 81 °C
CC(C)C(=O)Nc1nc2c(ncn2[C@@H]2O[C@@]3(CO[Si](c4ccccc4)(c4ccccc4)C(C)(C)C)CO[C@@H]2[C@@H]3OCc2ccccc2)c(=O)[nH]1 |  |  |  |  | melting point: 99 to 100 °C
5′-GCGTTTTTTTGCT-3′ [natural, reference compound] | 45 | 47 |  |  | 
5′-GCGTTTTTXGCT-3′ [Compound T5X] | 51 | 52 | +6 °C | +4 °C | 
5′-GCGTTTTXXGCT-3′ [Compound T4X2] | 55 | 54 | +5 °C | +3.5 °C | 
5′-GCGTTTXTTGCT-3′ [Compound T3XT2] | 50 | 49 | +5 °C | +2 °C | 
5′-GCGTTXTTTGCT-3′ [Compound T2XT3] | 49 | 49 | +4 °C | +2 °C | 
5′-GCGTTXXTTGCT-3′ [Compound T2X2T2] | 53 | 49 | +4 °C | +1 °C | 
5′-GCGXTTTTTGCT-3′ [XT6] | 49 | 50 | +4 °C | +3 °C | 
5′-GCGXXTTTTGCT-3′ [Compound X2T4] | 53 | 51 | +4 °C | +2 °C | 
5′-GCGXXXXXXGCT-3′ [Compound X6] | 71 | 58 | +4.3 °C | +1.8 °C | increase in Tm per modified residue, complementary RNA ([1]; per modified residue versus natural strand): 4 degrees; increase in Tm over the natural strand, complementary RNA [1, 4]: more than 25 degrees; rise in Tm as compared with the natural strand, complementary DNA oligomer [2, 4]: 11 degrees
5′-GTTTTTTTTTTTC-3′ [natural type] |  |  |  |  | time until ultraviolet absorption reached a plateau after initiation of the enzyme reaction [3]: about 30 minutes; t½ (half-life) ([3]; pH 8.6): 4.33 min
Cc1cn([C@@H]2O[C@@]3(CO)CO[C@@H]2[C@@H]3O)c(=O)[nH]c1=O [Compound 39a, 2′-O,4′-C-methylene-5-methyluridine] |  |  |  |  | melting point: 194 to 195 °C
